Measurements: paper PMC11318023, “Discovery of VU6008677: A Structurally Distinct Tricyclic M4 Positive Allosteric Modulator with Improved CYP450 Profile” (ACS Medicinal Chemistry Letters, 2024)
Read-outs that look alike come from different tables or passages of the source. Each block holds one compound with its values, some of them ahead of it.

Columns and labels:
[1] = biological target: T1, human M4 (hM4) (Homo sapiens, UniProt P08173); experiment: Calcium mobilization assay, hM4/Gqi5-CHO cells, with EC20 acetylcholine (PAM); conditions: for hM4 pEC50 / hM4 %ACh Max / EC50: hM4/Gqi5-CHO cells; for hM4 %ACh Max: maximum response; for EC50: read-out: hM4 EC50
T1 sequence (P08173 1-479): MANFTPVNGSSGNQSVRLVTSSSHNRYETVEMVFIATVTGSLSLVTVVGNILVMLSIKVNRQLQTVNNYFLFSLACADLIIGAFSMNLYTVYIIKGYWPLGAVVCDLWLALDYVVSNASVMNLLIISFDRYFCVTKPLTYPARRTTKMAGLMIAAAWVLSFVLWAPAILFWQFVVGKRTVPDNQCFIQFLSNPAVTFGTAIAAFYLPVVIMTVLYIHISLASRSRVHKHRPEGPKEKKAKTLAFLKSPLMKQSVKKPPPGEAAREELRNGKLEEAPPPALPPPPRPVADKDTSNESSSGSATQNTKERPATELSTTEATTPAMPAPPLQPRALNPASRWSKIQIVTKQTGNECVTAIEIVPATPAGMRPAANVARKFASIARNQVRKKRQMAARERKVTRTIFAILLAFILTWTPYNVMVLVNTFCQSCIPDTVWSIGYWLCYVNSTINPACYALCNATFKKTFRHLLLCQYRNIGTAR

[2] = biological target: T2, human M2 (hM2) (Homo sapiens, UniProt P08172); experiment: Calcium mobilization assay, hM2/Gqi5-CHO cells, with EC20 acetylcholine; type: cell-based
T2 construct: expressed in transfected cells
T2 sequence (P08172 1-466): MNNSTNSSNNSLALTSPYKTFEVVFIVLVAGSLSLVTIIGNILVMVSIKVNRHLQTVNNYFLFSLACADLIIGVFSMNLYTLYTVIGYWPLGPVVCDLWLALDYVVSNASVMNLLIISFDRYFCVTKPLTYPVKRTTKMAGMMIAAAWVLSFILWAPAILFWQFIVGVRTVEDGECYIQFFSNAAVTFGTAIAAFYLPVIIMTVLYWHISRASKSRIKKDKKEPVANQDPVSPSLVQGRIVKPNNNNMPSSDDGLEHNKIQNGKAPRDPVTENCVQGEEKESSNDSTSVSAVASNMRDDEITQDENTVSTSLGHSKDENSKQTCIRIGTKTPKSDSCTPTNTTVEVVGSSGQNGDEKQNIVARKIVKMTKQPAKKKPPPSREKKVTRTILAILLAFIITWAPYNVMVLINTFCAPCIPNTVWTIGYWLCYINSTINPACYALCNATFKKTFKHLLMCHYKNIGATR
Source text: buffer remained in the cell plates. […] After establishment of a […]

[3] = Intrinsic clearance in rat liver microsomes (substrate depletion), predicted hepatic clearance; type: in vitro ADME; conditions: for CLint scaled at 1 µM: pH 7.4, rat liver microsomes; for CLhep, rat (predicted hepatic clearance): predicted from rat microsomal CLint
[4] = Intrinsic clearance in human liver microsomes (substrate depletion), predicted hepatic clearance; type: in vitro ADME; conditions: for CLint scaled at 1 µM: pH 7.4, human liver microsomes; for CLhep, human (predicted hepatic clearance): predicted from human microsomal CLint
[5] = Binding in plasma from rat, equilibrium dialysis; type: in vitro ADME; conditions: read-out: rat fu,plasma
[6] = Binding in plasma from human, equilibrium dialysis; type: in vitro ADME; conditions: human, plasma, read-out: human fu,plasma
[7] = Binding in brain homogenate from rat, equilibrium dialysis; type: in vitro ADME; conditions: rat brain homogenates; for fraction unbound at 6 h, 1 µM: rat, brain homogenate, read-out: rat fu,brain
[8] = biological target: T3, CYP 1A2 (Homo sapiens, UniProt P05177); experiment: CYP450 inhibition in pooled human liver microsomes, CYP-specific probe substrates; type: in vitro ADME; conditions: pooled HLM, NADPH, CYP-specific probe substrate
T3 sequence (P05177 1-516): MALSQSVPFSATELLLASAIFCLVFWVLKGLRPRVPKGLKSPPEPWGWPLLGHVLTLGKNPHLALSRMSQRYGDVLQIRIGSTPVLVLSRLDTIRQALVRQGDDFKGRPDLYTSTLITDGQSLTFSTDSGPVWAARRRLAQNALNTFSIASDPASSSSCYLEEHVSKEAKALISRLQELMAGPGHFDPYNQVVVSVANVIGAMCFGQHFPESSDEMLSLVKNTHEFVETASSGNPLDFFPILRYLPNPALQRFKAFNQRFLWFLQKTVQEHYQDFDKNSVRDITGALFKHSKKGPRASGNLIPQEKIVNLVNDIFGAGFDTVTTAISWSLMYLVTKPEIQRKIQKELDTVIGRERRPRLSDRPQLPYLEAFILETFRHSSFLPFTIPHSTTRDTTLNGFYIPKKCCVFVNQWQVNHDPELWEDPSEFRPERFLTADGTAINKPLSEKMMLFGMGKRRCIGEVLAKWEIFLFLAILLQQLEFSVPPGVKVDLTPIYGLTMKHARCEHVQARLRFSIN

[9] = biological target: CYP 2C9 (Homo sapiens, UniProt P11712); experiment: as above; type: in vitro ADME; conditions: pooled HLM, NADPH, CYP-specific probe substrate
[10] = biological target: CYP 2D6 (Homo sapiens, UniProt P10635); experiment: as above; type: in vitro ADME; conditions: pooled HLM, NADPH, CYP-specific probe substrate
[11] = biological target: CYP 3A4 (Homo sapiens, UniProt P08684); experiment: as above; type: in vitro ADME; conditions: pooled HLM, NADPH, CYP-specific probe substrate
[12] = calcium mobilization, EC20 acetylcholine
[13] = calcium mobilization, EC20 fixed concentration of acetylcholine

CYP 3A4, sequence (P08684 whole entry): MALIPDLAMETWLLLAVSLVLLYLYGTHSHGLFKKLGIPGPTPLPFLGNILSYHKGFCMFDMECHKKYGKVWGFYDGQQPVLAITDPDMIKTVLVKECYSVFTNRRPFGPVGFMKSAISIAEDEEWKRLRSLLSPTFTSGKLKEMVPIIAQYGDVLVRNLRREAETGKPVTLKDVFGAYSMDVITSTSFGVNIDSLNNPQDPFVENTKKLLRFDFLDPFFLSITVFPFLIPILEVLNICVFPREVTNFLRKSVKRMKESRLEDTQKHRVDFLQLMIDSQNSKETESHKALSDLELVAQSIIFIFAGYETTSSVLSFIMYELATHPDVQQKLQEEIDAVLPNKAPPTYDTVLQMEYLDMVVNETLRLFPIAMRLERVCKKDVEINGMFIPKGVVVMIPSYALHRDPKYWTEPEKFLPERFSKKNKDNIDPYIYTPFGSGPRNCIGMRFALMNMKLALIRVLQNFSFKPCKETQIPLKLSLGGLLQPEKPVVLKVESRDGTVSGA
CYP 2C9, sequence (P11712 whole entry): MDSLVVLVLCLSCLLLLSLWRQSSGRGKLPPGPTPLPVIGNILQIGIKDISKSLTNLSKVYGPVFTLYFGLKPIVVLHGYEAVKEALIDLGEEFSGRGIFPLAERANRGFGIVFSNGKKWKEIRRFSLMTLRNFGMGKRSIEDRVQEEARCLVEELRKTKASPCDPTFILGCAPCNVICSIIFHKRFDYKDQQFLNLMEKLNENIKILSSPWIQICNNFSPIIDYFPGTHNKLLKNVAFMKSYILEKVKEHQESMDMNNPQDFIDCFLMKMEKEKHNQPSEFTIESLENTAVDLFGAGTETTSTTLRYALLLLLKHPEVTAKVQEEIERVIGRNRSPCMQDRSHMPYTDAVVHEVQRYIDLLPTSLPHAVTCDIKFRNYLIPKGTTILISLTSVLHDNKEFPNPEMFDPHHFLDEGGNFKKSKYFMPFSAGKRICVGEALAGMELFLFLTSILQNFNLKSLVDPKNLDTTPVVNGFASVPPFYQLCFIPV
CYP 2D6, sequence (P10635 whole entry): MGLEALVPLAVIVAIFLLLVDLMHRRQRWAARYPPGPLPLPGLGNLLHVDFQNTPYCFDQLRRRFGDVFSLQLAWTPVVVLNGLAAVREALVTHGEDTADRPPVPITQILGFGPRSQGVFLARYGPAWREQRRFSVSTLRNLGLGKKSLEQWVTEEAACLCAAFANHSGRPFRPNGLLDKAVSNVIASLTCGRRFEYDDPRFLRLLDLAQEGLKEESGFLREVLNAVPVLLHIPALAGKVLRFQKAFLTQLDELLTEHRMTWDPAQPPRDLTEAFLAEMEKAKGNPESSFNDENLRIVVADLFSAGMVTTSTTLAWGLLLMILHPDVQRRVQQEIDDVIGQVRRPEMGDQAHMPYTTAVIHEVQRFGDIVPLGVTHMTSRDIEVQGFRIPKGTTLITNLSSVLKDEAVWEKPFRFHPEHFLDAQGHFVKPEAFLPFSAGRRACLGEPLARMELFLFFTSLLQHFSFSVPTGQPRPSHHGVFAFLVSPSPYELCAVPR

SMILES: Cc1nc2oc3c(NC4CC4(C)C)ncnc3c2c(C)c1Cl.Cl (stereo not drawn) [Compound 14p]
EC50 [2]: 2300 nM
hM2 % ACh Max [2]: 39%
CLint scaled at 1 µM [3]: 467 mL/min/kg
CLhep, rat (predicted hepatic clearance) [3]: 61 mL/min/kg
CLint scaled at 1 µM [4]: 168 mL/min/kg
CLhep, human (predicted hepatic clearance) [4]: 19 mL/min/kg
fraction unbound at 6 h, 5 µM [5]: 0.038
fraction unbound at 6 h, 5 µM [6]: 0.004
fraction unbound at 6 h, 1 µM [7]: 0.002
IC50 [8]: 320 nM
IC50 [9]: > 30000 nM
IC50 [10]: > 30000 nM
IC50 [11]: > 30000 nM

SMILES: Cc1nc2oc3c(NCc4ccc(C(C)(C)O)cc4)ncnc3c2c(C)c1Cl [Compound 14c]
hM4 pEC50 [1, 12]: 5.93
hM4 %ACh Max [1, 12]: 62%
EC50 [1, 13]: 1.2 µM

SMILES: Cc1nc2oc3c(N(C)C)ncnc3c2c(C)c1Cl.Cl [Compound 14e]
hM4 pEC50 [1, 12]: 5.86
EC50 [1, 13]: 1.4 µM

SMILES: Cc1nc2sc3c(NC4CC(F)(F)C4)nncc3c2c(C)c1Cl.Cl [Compound 22k]
EC50 [2]: 260 nM
hM2 % ACh Max [2]: 49%
CLint scaled at 1 µM [3]: 1670 mL/min/kg
CLhep, rat (predicted hepatic clearance) [3]: 67 mL/min/kg
CLint scaled at 1 µM [4]: 185 mL/min/kg
CLhep, human (predicted hepatic clearance) [4]: 19 mL/min/kg
fraction unbound at 6 h, 5 µM [5]: 0.057
fraction unbound at 6 h, 5 µM [6]: 0.01
fraction unbound at 6 h, 1 µM [7]: 0.008
IC50 [8]: 980 nM
IC50 [9]: > 30000 nM
IC50 [10]: 25200 nM
IC50 [11]: > 30000 nM

SMILES: Cc1ncc(CNc2ncnc3c2sc2nc(C)c(Cl)c(C)c23)cn1.Cl [Compound 13b]
hM4 pEC50 [1, 12]: < 5.00
hM4 %ACh Max [1, 12]: 75%
EC50 [1, 13]: > 10 µM

SMILES: Cc1nc2sc3c(NC4CC4)ncnc3c2c(C)c1Cl.Cl [Compound 13l]
EC50 [2]: 5000 nM
hM2 % ACh Max [2]: 49%
CLint scaled at 1 µM [3]: 423 mL/min/kg
CLhep, rat (predicted hepatic clearance) [3]: 60 mL/min/kg
CLint scaled at 1 µM [4]: 78 mL/min/kg
CLhep, human (predicted hepatic clearance) [4]: 17 mL/min/kg
fraction unbound at 6 h, 5 µM [5]: ≤ 0.01
rat fu,brain ([7]; fraction unbound): 0.001
fraction unbound at 6 h, 1 µM [7]: 0.001 to 0.005
IC50 [8]: < 100 nM
IC50 [9]: > 15800 nM
IC50 [10]: > 30000 nM
IC50 [11]: 15800 nM

SMILES: Cc1nc2sc3c(NCC4CCC4)nncc3c2c(C)c1Cl.Cl [Compound 22f]
hM4 pEC50 [1, 12]: 6.40
fold loss (decrease) in hM4 potency ([1]; relative to the comparator analogue (13g, 13k vs 13l; 22f vs 22j)): ~5 fold

SMILES: Cc1nc2sc3c(NC4CC(c5ccncc5)C4)ncnc3c2c(C)c1Cl.Cl (stereo not drawn) [Compound 13h]
hM4 pEC50 [1, 12]: 5.82
hM4 %ACh Max [1, 12]: 84%
EC50 [1, 13]: 1.5 µM

SMILES: Cc1nc2sc3c(N4CC5(COC5)C4)ncnc3c2c(C)c1Cl.Cl [Compound 13d]
hM4 pEC50 [1, 12]: <5.00
hM4 %ACh Max [1, 12]: 71%
EC50 ([1]; as quoted in text in μM, EC20 acetylcholine): > 10 µM
EC50 [1, 13]: > 10 µM

SMILES: COc1ccc(CNc2ncnc3c2oc2nc(C)c(Cl)c(C)c23)cc1F.Cl [Compound 14a]
hM4 pEC50 [1, 12]: <5.00
hM4 %ACh Max [1, 12]: 49%
EC50 [1, 13]: > 10 µM

Second part, the compound after the results:

hM4 pEC50 [1, 12]: 6.72
hM4 %ACh Max [1, 12]: 67%
EC50 [1, 13]: 0.19 µM
SMILES: COCCCNc1nncc2c1sc1nc(C)c(Cl)c(C)c12.Cl [Compound 22g]

hM4 pEC50 [1, 12]: 5.88
hM4 %ACh Max [1, 12]: 69%
EC50 [1, 13]: 1.3 µM
SMILES: COc1ccc(CNc2nncc3c2sc2nc(C)c(Cl)c(C)c23)cc1F [Compound 22a]

hM4 pEC50 [1, 12]: 6.29
hM4 %ACh Max [1, 12]: 73%
EC50 [1, 13]: 0.51 µM
SMILES: Cc1nc2sc3c(N4CC5CC5C4)nncc3c2c(C)c1Cl.Cl (stereo not drawn) [Compound 22c]

hM2 EC50 [2]: inactive
CLint scaled at 1 µM [3]: 334 mL/min/kg
CLhep, rat (predicted hepatic clearance) [3]: 58 mL/min/kg
CLint scaled at 1 µM [4]: 147 mL/min/kg
CLhep, human (predicted hepatic clearance) [4]: 18 mL/min/kg
fraction unbound at 6 h, 5 µM [5]: 0.031
fraction unbound at 6 h, 5 µM [6]: 0.008
fraction unbound at 6 h, 1 µM [7]: 0.003
IC50 [8]: 640 nM
IC50 [9]: > 30000 nM
IC50 [10]: > 30000 nM
IC50 [11]: > 30000 nM
SMILES: Cc1c(Cl)cnc2sc3c(N4CC5(COC5)C4)ncnc3c12 [Compound 15h]

hM4 pEC50 [1, 12]: 5.22
hM4 %ACh Max [1, 12]: 45%
EC50 [1, 13]: 6 µM
SMILES: Cc1c(Cl)cnc2sc3c(N4CCCC4)ncnc3c12 [Compound 15a]

hM4 pEC50 [1, 12]: 6.39
hM4 %ACh Max [1, 12]: 51%
EC50 [1, 13]: 0.4 µM
SMILES: Cc1c(Cl)cnc2sc3c(NC4(C)CC4)ncnc3c12 [Compound 15b]

hM2 EC50 [2]: inactive
CLint scaled at 1 µM [3]: 316 mL/min/kg
CLhep, rat (predicted hepatic clearance) [3]: 57 mL/min/kg
CLint scaled at 1 µM [4]: 79 mL/min/kg
CLhep, human (predicted hepatic clearance) [4]: 17 mL/min/kg
fraction unbound at 6 h, 5 µM [5]: ≤ 0.01
fraction unbound at 6 h, 5 µM [6]: ≤ 0.01
IC50 [8]: 1500 nM
IC50 [9]: 9100 nM
IC50 [10]: 330 nM
IC50 [11]: > 30000 nM
hM4 pEC50 [1, 12]: 7.09
hM4 %ACh Max [1, 12]: 65%
EC50 [1, 13]: 0.081 µM
SMILES: Cc1c(Cl)cnc2sc3c(NC4CC(c5ccncc5)C4)ncnc3c12 (stereo not drawn) [Compound 15e]

hM4 pEC50 [1, 12]: 6.27
hM4 %ACh Max [1, 12]: 41%
SMILES: Cc1nc2sc3c(NCc4ccc(OC(F)F)cc4)nncc3c2c(C)c1Cl [Compound 22e]

hM4 pEC50 [1, 12]: 6.50
hM4 %ACh Max [1, 12]: 84%
EC50 [1, 13]: 0.32 µM
SMILES: Cc1c(Cl)cnc2sc3c(NCc4ccncc4)ncnc3c12 [Compound 15d]

hM4 pEC50 [1, 12]: 6.34
hM4 %ACh Max [1, 12]: 71%
EC50 [1, 13]: 0.45 µM
SMILES: Cc1ncc(CNc2ncnc3c2sc2ncc(Cl)c(C)c23)cn1.Cl [Compound 15c]
